Values of other authors in paper PMC2217462 (The Journal of General Physiology, 2004).

Tests used:
[1] = tested on: Kv2.1 channel, basic substitutions at E277; details: substitution of basic residues at E277 of Kv2.1; ref Li-Smerin and Swartz, 2000
[2] = tested on: Kv2.1 channel, mutations at F274; details: mutations at F274 of Kv2.1; ref Li-Smerin and Swartz, 2000

## hanatoxin
[1]
  fold increase in hanatoxin Kd: ≤ 125 fold
[2]
  fold increase in hanatoxin Kd: ≤ 500 fold
